From patent US8063012B2, “Neuroprotective peptide inhibitors of AP-1 signaling and uses therefor” (Phylogica Limited, priority 2006, dated 2011)
Entries after “also recorded” stand apart in the source; their conditions may differ. Non-standard residues stand in square brackets, D forms with d. Residues, ends and D or L forms follow the SMILES beside them. No end group written: not given here.

What was measured:
[1] = tested on: primary cortical neuronal cultures; experiment: Glutamate excitotoxicity in primary cortical neuronal cultures, neuronal viability by MTS assay; assay type: cell-based, rat; details: for neuronal viability following glutamate excitotoxicity: MTS 18 h
Procedure: Neurons were resuspended in Neurobasal (NB; Invitrogen) containing 2% B27 supplement (B27; Invitrogen). Before seeding, culture vessels comprising either a 96-well plastic plate or 24-well plastic plate with 13 mm glass coverslips (ProSciTech, Australia), were coated with poly-D-lysine (50 μg/mL; 70-150K; Sigma) and incubated overnight at room temperature. […] Neurons were plated to obtain approximately 10,000 viable neurons for each well of a 96-well plate, or 200,000 viable neurons per well of a 24-well plate, on day in vitro (DIV) […]. […] On DIV 4, one third of the culture medium was removed and replaced with fresh NB/2% B27 containing the mitotic inhibitor, cytosine arabinofuranoside (Sigma) at 1 μM concentration. On DIV 8, one half of the culture medium was replaced with NB/2% B27.
(§1) To induce glutamate excitotoxicity in the cortical neuronal cultures (96-well plate format), 50 μl of conditioned media containing 200 μM glutamate was added to culture wells containing 50 μl conditioned media (100 μM final glutamate concentration). Cultures were incubated at 37° C. in a CO2 incubator for 5 minutes, after which time the media was replaced with 100 μl of 50% NB/2% N2 and 50% balance salt solution (NB/N2:BSS).
Untreated and glutamate-treated control samples received media additions with and without glutamate respectively.
(§2) Eighteen hours after glutamate exposure, neuronal cultures were examined by light microscopy for qualitative assessment of neuronal damage. Neuronal viability was quantitatively measured by 3-(4,5,dimethyliazol-2-yl)-5-(3-carboxymethoxy-phenyl)-2-(4-sulfophenyl)-2H-tetrazolium salt (MTS) assay (Promega, Australia). The MTS assay measures the mitochondrial conversion of the tetrazolium salt to a water-soluble brown formazan salt, which is detected spectrophotometrically at 495 nm. MTS absorbance data was converted to reflect proportional cell viability relative to both the untreated and glutamate treated controls. […] All assays were performed with quadruplicate sister neuronal cultures repeated a minimum of four times independently.

[2] = tested on: primary cortical neuronal cultures; experiment: Light microscopy assessment of neuronal damage after glutamate exposure; assay type: cell-based, rat; details: for neurons that appeared intact and viable: Sprague-Dawley, rat, 18 hours; for neuronal morphology (cellular rounding, survival) after glutamate exposure: light microscopy, one hour to 18 hours post glutamate exposure
Procedure: Cortical neuronal cultures were established as described by Meloni et al., Neuroscience 108, 17-26, 2001. Briefly, cortical tissue from E18-E19 Sprague-Dawley rats was dissociated in Dulbelcco's Modified Eagle Medium (DMEM; Invitrogen, Australia) supplemented with 1.3 mM L-cysteine, 0.9 mM NaHCO3, 10 units/ml papain (Sigma, USA) and 50 units/ml DNase (Sigma) and washed in cold DMEM/10% (v/v) horse serum. Neurons were resuspended in Neurobasal (NB; Invitrogen) containing 2% B27 supplement (B27; Invitrogen). Before seeding, culture vessels comprising either a 96-well plastic plate or 24-well plastic plate with 13 mm glass coverslips (ProSciTech, Australia), were coated with poly-D-lysine (50 μg/mL; 70-150K; Sigma) and incubated overnight at room temperature. The poly-D-lysine was removed and replaced with NB (containing 2% B27; 4% fetal bovine serum; 1% horse serum; 62.5 μM glutamate; 25 μM 2-mercaptoethanol; and 30 μg/mL streptomycin and 30 μg/mL penicillin). Neurons were plated to obtain approximately 10,000 viable neurons for each well of a 96-well plate, or 200,000 viable neurons per well of a 24-well plate, on day in vitro (DIV) […]. Neuronal cultures were maintained in a CO2 incubator (5% CO2, 95% air balance, 98% humidity) at 37° C. On DIV 4, one third of the culture medium was removed and replaced with fresh NB/2% B27 containing the mitotic inhibitor, cytosine arabinofuranoside (Sigma) at 1 μM concentration. On DIV 8, one half of the culture medium was replaced with NB/2% B27. Cultures were used on DIV 11 or 12, and consisted of >95% neurons.
as §1, §2

[3] = 2 μM extracellular concentration
[4] = 5 μM extracellular peptide, 100 μM glutamate 5 min, no insult = 100%
[5] = 1 μM extracellular concentration

Molecule	neuroprotection in the glutamate model ([1]; 5 μM extracellular peptide)	neuroprotection in the glutamate model ([1]; 5 μM extracellular peptide, listed as PYC35L-Scram-TAT)	neurons that appeared intact and viable [2]	neuronal morphology (cellular rounding, survival) after glutamate exposure [2]	neuroprotection in the glutamate model ([1]; 5 μM extracellular peptide, listed as PYC36L Scram-TAT)	neuroprotection following glutamate excitotoxicity [1, 3]	neuronal viability following glutamate excitotoxicity [1, 4]	extracellular concentration providing significant neuroprotection ([1]; glutamate excitotoxicity, dose response 0.1-10 μM)	neuroprotection following glutamate excitotoxicity [1, 5]	neuroprotection compared with JNKI-1D-TAT ([1]; 1 μM concentration)	neuronal viability following glutamate excitotoxicity ([1]; 1 μM extracellular peptide)
CC[C@@H](C)[C@@H](NC(=O)CNC(=O)[C@@H](CCC(=O)O)NC(=O)[C@@H](CO)NC(=O)[C@@H](CCCNC(=N)N)NC(=O)[C@@H](CCC(=O)O)NC(=O)[C@H](NC(=O)[C@H](N)CCCCN)[C@H](C)CC)C(=O)N[C@H](CO)C(=O)N[C@H](CCC(N)=O)C(=O)N[C@H](CO)C(=O)N[C@H](C)C(=O)N[C@H](CCCNC(=N)N)C(=O)N[C@H](CO)C(=O)N[C@H](CCCNC(=N)N)C(=O)NCC(=O)N[C@H](Cc1ccc(O)cc1)C(=O)N[C@H](CO)C(=O)NCC(=O)N[C@H](CCCNC(=N)N)C(=O)N[C@H](CCCNC(=N)N)C(=O)N[C@H](CCCNC(=N)N)C(=O)N[C@H](CCC(N)=O)C(=O)N[C@H](CCCNC(=N)N)C(=O)N[C@H](CCCNC(=N)N)C(=O)N[C@H](CCCCN)C(=O)N[C@H](CCCCN)C(=O)N[C@H](CCCNC(=N)N)C(=O)NCC(=O)O [PYC35D Scram-TAT, reference compound] (H-[dK][dI][dE][dR][dS][dE]G[dI][dS][dQ][dS][dA][dR][dS][dR]G[dY][dS]G[dR][dR][dR][dQ][dR][dR][dK][dK][dR]G-OH; N-terminus and C-terminus assumed)	failed to provide neuroprotection	reduced neuroprotection	2-5%	displayed cellular rounding	–	–	–	–	–	–	–
CC[C@@H](C)[C@@H](NC(=O)CNC(=O)CNC(=O)[C@@H](CCCNC(=N)N)NC(=O)[C@@H](CCCNC(=N)N)NC(=O)[C@H](N)CCCCN)C(=O)N[C@H](CC(C)C)C(=O)N[C@H](CCCNC(=N)N)C(=O)N[C@H](Cc1ccc(O)cc1)C(=O)NCC(=O)N[C@H](CCC(N)=O)C(=O)N1CCC[C@@H]1C(=O)N[C@H](CCC(N)=O)C(=O)N[C@H](CO)C(=O)N[C@H](CCC(N)=O)C(=O)NCC(=O)N[C@H](CCCNC(=N)N)C(=O)N[C@H](CCCNC(=N)N)C(=O)N[C@H](CCCNC(=N)N)C(=O)N[C@H](CCC(N)=O)C(=O)N[C@H](CCCNC(=N)N)C(=O)N[C@H](CCCNC(=N)N)C(=O)N[C@H](CCCCN)C(=O)N[C@H](CCCCN)C(=O)N[C@H](CCCNC(=N)N)C(=O)NCC(=O)O [PYC36D Scram-TAT, reference compound] (H-[dK][dR][dR]GG[dI][dL][dR][dY]G[dQ][dP][dQ][dS][dQ]G[dR][dR][dR][dQ][dR][dR][dK][dK][dR]G-OH; N-terminus and C-terminus assumed)	failed to provide neuroprotection	–	2-5%	displayed cellular rounding	reduced neuroprotection	–	–	–	–	–	–
GRKKRRQRRRGAYQSIRSGGIESSSKRER [PYC35L-TAT]	–	–	–	did not begin to round and survived glutamate excitotoxicity	–	neuroprotective trend	42%	≥ 2 µM	–	–	–
GRKKRRQRRRGGLQGRRQPGQQPQGRWSGRALPAHR [PYC38/39L-TAT]	–	–	–	did not begin to round and survived glutamate excitotoxicity	–	initial significant neuroprotection	69%	–	neuroprotective trend	–	–
GRKKRRQRRRGGLQGRRRQGYQSIKP [PYC36L-TAT]	–	–	–	did not begin to round and survived glutamate excitotoxicity	–	–	64%	–	significant level of neuroprotection	greater neuroprotection than JNKI-1D-TAT	30%
GRKKRRQRRRGLINQSYAYPYIY [PYC19L-TAT]	–	–	–	did not begin to round and survived glutamate excitotoxicity	–	neuroprotective trend	32%	–	neuroprotective trend; also recorded: significant neuroprotection	–	–
GRKKRRQRRRGVSINQEHHRLLPL [PYC41L-TAT]	–	–	–	did not begin to round and survived glutamate excitotoxicity	–	initial significant neuroprotection	38%	–	neuroprotective trend	–	–
